B1: vofatamab: an anti-FGFR3 antibody (antibody, chains of the INN, looked up, V domains shown)
VH: EVQLVESGGGLVQPGGSLRLSCAASGFTFTSTGISWVRQAPGKGLEWVGRIYPTSGSTNYADSVKGRFTISADTSKNTAYLQMNSLRAEDTAVYYCARTYGIYDLYVDYTEYVMDYWGQGTLVTVSS
VL: DIQMTQSPSSLSASVGDRVTITCRASQDVDTSLAWYKQKPGKAPKLLIYSASFLYSGVPSRFSGSGSGTDFTLTISSLQPEDFATYYCQQSTGHPQTFGQGTKVEIK

Tests used:
[1] = test system: mouse breast cancer cell line 4T1 subcutaneously implanted model; test: Influence on tumor immunity in model subcutaneously implanted with mouse breast cancer cell 4T1; type: in vivo, BALB/cAJcl mouse; conditions: Day 15
Protocol: Mouse breast cancer cell line 4T1 was subcutaneously implanted in a 6-week-old male BALB/cAJcl mouse. […] On the day following the final administration (Day 15), lymphocyte fractions were isolated from the tumor, spleen, and peripheral blood, and myeloid-derived suppressor cells (MDSCs) (CD11b^+/Gr−1^+ cells), CD4-positive T cells, and CD8-positive T cells were measured using a cell sorter.

urothelial cancer = conditions: cited from earlier work
[2] = 15 and 30 mg/kg/day oral, daily for 14 days, compared with control

Row | Molecule | CD4-positive T cells in the peripheral blood lymphocyte fractions [1, 2] | CD8-positive T cells in the peripheral blood lymphocyte fractions [1, 2] | CD8-positive T cells in the spleen lymphocyte fractions [1, 2] | MDSCs in the peripheral blood lymphocyte fractions [1, 2] | MDSCs (CD11b+/Gr-1+ cells) in the spleen lymphocyte fractions ([1]; any dose (15 or 30 mg/kg/day oral, daily for 14 days), compared with non-drug administration control, Student's t-test P<0.01) | response in patients without FGFR genetic aberration (urothelial cancer; combined use with pembrolizumab) | sensitivity state of the cancer to immune checkpoint inhibitors (urothelial cancer; urothelial cancer patients, vofatamab administration)
1 | C=CC(=O)N1CC[C@H](n2nc(C#Cc3cc(OC)cc(OC)c3)c3c(N)ncnc32)C1 [compound 1, (S)-1-(3-(4-amino-3-((3,5-dimethoxyphenyl)ethynyl)-1H-pyrazolo[3,4-d]pyrimidin-1-yl)pyrrolidin-1-yl)prop-2-en-1-one] | tended to increase in a dose-dependent manner | tended to increase in a dose-dependent manner | tended to increase in a dose-dependent manner | tended to decrease in a dose-dependent manner | significant reduction |  | 
2 | B1 |  |  |  |  |  | response by combined use with pembrolizumab is observed | change from a “cold” state (low sensitivity to immune checkpoint inhibitors) to a “hot” state (high sensitivity to immune checkpoint inhibitors)
